Columns and labels:
[1] = species on record: Homo sapiens; assay: Toxicity in human patient infected with Trypanosoma cruzi assessed as occurrence of dermatitis with cutaneous eruptions on day 7 to 10; format: organism-based; settings: in vivo
[2] = system: Homo sapiens; assay: Toxicity in human patient infected with Trypanosoma cruzi assessed as occurrence of Urticaria at 5 mg/kg/day for 60 days; format: organism-based; settings: in vivo, 1440 h
[3] = system: Homo sapiens; assay: Toxicity in human patient infected with Trypanosoma cruzi assessed as occurrence of Dyshidrosis at 5 mg/kg/day for 60 days; format: organism-based; settings: in vivo, 1440 h
[4] = species on record: Homo sapiens; assay: Toxicity in human patient infected with Trypanosoma cruzi assessed as occurrence of thrombopenic purpura after 2nd week of treatment; format: organism-based; settings: in vivo
[5] = species on record: Homo sapiens; assay: Toxicity in human patient infected with Trypanosoma cruzi assessed as occurrence of polyneuropathy on 4th week of treatment; format: organism-based; settings: in vivo
[6] = system: Homo sapiens; assay: Toxicity in human patient infected with Trypanosoma cruzi assessed as occurrence of Articular involvement at 5 mg/kg/day for 60 days; format: organism-based; settings: in vivo, 1440 h
[7] = system: Homo sapiens; assay: Toxicity in human patient infected with Trypanosoma cruzi assessed as occurrence of Mucositis at 5 mg/kg/day for 60 days; format: organism-based; settings: in vivo, 1440 h
[8] = system: Homo sapiens; assay: Toxicity in human patient infected with Trypanosoma cruzi assessed as occurrence of Headache at 5 mg/kg/day for 60 days; format: organism-based; settings: in vivo, 1440 h
[9] = species on record: Homo sapiens; assay: Toxicity in human patient infected with Trypanosoma cruzi assessed as occurrence of lymphadenopathy; format: organism-based; settings: in vivo
[10] = system: Homo sapiens; assay: Toxicity in human patient infected with Trypanosoma cruzi assessed as occurrence of Nausea at 5 mg/kg/day for 60 days; format: organism-based; settings: in vivo, 1440 h
[11] = system: Homo sapiens; assay: Toxicity in human patient infected with Trypanosoma cruzi assessed as occurrence of Erythema nodosum at 5 mg/kg/day for 60 days; format: organism-based; settings: in vivo, 1440 h
[12] = system: Homo sapiens; assay: Toxicity in human patient infected with Trypanosoma cruzi assessed as occurrence of Dysphagia at 5 mg/kg/day for 60 days; format: organism-based; settings: in vivo, 1440 h
[13] = species on record: Homo sapiens; assay: Toxicity in human patient infected with Trypanosoma cruzi assessed as occurrence of polyneuritis on 4th week of treatment; format: organism-based; settings: in vivo
[14] = species on record: Homo sapiens; assay: Toxicity in human patient infected with Trypanosoma cruzi assessed as occurrence of paresthesias on 4th week of treatment; format: organism-based; settings: in vivo
[15] = system: Homo sapiens; assay: Toxicity in human patient infected with Trypanosoma cruzi assessed as occurrence of Aphthous stomatitis at 5 mg/kg/day for 60 days; format: organism-based; settings: in vivo, 1440 h
[16] = system: Homo sapiens; assay: Toxicity in human patient infected with Trypanosoma cruzi assessed as occurrence of Hyperpigmentation at 5 mg/kg/day for 60 days; format: organism-based; settings: in vivo, 1440 h
[17] = system: Homo sapiens; assay: Toxicity in human patient infected with Trypanosoma cruzi assessed as occurrence of Diarrhea at 5 mg/kg/day for 60 days; format: organism-based; settings: in vivo, 1440 h
[18] = species on record: Homo sapiens; assay: Toxicity in human patient infected with Trypanosoma cruzi assessed as occurrence of hypersensitivity on day 7 to 10; format: organism-based; settings: in vivo
[19] = system: Homo sapiens; assay: Toxicity in human patient infected with Trypanosoma cruzi assessed as occurrence of Arthritis at 5 mg/kg/day for 60 days; format: organism-based; settings: in vivo, 1440 h
[20] = system: Homo sapiens; assay: Toxicity in human patient infected with Trypanosoma cruzi assessed as occurrence of Petechial rash at 5 mg/kg/day for 60 days; format: organism-based; settings: in vivo, 1440 h
[21] = species on record: Homo sapiens; assay: Toxicity in human patient infected with Trypanosoma cruzi assessed as occurrence of agranulocytosis after 2nd week of treatment; format: organism-based; settings: in vivo
[22] = system: Homo sapiens; assay: Toxicity in human patient infected with Trypanosoma cruzi assessed as occurrence of cardiac disorders at 5 mg/kg/day for 60 days; format: organism-based, Heart; settings: in vivo, 1440 h
[23] = species on record: Homo sapiens; assay: Toxicity in human patient infected with Trypanosoma cruzi assessed as occurrence of myalgias; format: organism-based; settings: in vivo
[24] = system: Homo sapiens; assay: Toxicity in human patient infected with Trypanosoma cruzi assessed as occurrence of Palmar-plantar rash at 5 mg/kg/day for 60 days; format: organism-based; settings: in vivo, 1440 h
[25] = system: Homo sapiens; assay: Toxicity in human patient infected with Trypanosoma cruzi assessed as occurrence of Fever at 5 mg/kg/day for 60 days; format: organism-based; settings: in vivo, 1440 h
[26] = system: Homo sapiens; assay: Toxicity in human patient infected with Trypanosoma cruzi assessed as occurrence of Arthromyalgia at 5 mg/kg/day for 60 days; format: organism-based; settings: in vivo, 1440 h
[27] = system: Homo sapiens; assay: Toxicity in human patient infected with Trypanosoma cruzi assessed as occurrence of dolichocolon at 5 mg/kg/day for 60 days; format: organism-based, Colon; settings: in vivo, 1440 h
[28] = system: Homo sapiens; assay: Toxicity in human patient infected with Trypanosoma cruzi assessed as occurrence of Itching at 5 mg/kg/day for 60 days; format: organism-based; settings: in vivo, 1440 h
[29] = system: Homo sapiens; assay: Toxicity in human patient infected with Trypanosoma cruzi assessed as occurrence of Weakness at 5 mg/kg/day for 60 days; format: organism-based; settings: in vivo, 1440 h
[30] = system: Homo sapiens; assay: Toxicity in human patient infected with Trypanosoma cruzi assessed as occurrence of Paresthesia at 5 mg/kg/day for 60 days; format: organism-based; settings: in vivo, 1440 h
[31] = system: Homo sapiens; assay: Toxicity in human patient infected with Trypanosoma cruzi assessed as occurrence of Vomiting at 5 mg/kg/day for 60 days; format: organism-based; settings: in vivo, 1440 h
[32] = system: Homo sapiens; assay: Toxicity in human patient infected with Trypanosoma cruzi assessed as occurrence of Hearing impairment at 5 mg/kg/day for 60 days; format: organism-based; settings: in vivo, 1440 h
[33] = system: Homo sapiens; assay: Toxicity in human patient infected with Trypanosoma cruzi assessed as occurrence of Abdominal bloating at 5 mg/kg/day for 60 days; format: organism-based, Abdomen; settings: in vivo, 1440 h
[34] = species on record: Homo sapiens; assay: Toxicity in human patient infected with Trypanosoma cruzi assessed as occurrence of arthralgias; format: organism-based; settings: in vivo
[35] = system: Homo sapiens; assay: Toxicity in human patient infected with Trypanosoma cruzi assessed as occurrence of Heartburn at 5 mg/kg/day for 60 days; format: organism-based; settings: in vivo, 1440 h
[36] = system: Homo sapiens; assay: Toxicity in human patient infected with Trypanosoma cruzi assessed as occurrence of Gastrointestinal disorders at 5 mg/kg/day for 60 days; format: organism-based; settings: in vivo, 1440 h
[37] = system: Homo sapiens; assay: Toxicity in human patient infected with Trypanosoma cruzi assessed as occurrence of Dermatological disorder at 5 mg/kg/day for 60 days; format: organism-based; settings: in vivo, 1440 h
[38] = system: Homo sapiens; assay: Toxicity in human patient infected with Trypanosoma cruzi assessed as occurrence of Edema at 5 mg/kg/day for 60 days; format: organism-based; settings: in vivo, 1440 h
[39] = system: Homo sapiens; assay: Toxicity in human patient infected with Trypanosoma cruzi assessed as occurrence of Epigastralgia at 5 mg/kg/day for 60 days; format: organism-based; settings: in vivo, 1440 h
[40] = system: Homo sapiens; assay: Toxicity in human patient infected with Trypanosoma cruzi assessed as occurrence of Anorexia at 5 mg/kg/day for 60 days; format: organism-based; settings: in vivo, 1440 h

## O=C(Cn1ccnc1[N+](=O)[O-])NCc1ccccc1 [BENZNIDAZOLE]
[1]
  Activity: Toxic
[2]
  Activity: 43.4%
[3]
  Activity: Toxic
[4]
  Activity: Toxic
[5]
  Activity: Toxic
[6]
  Activity: 36.2%
[7]
  Activity: Toxic
[8]
  Activity: 56.2%
[9]
  Activity: Toxic
[10]
  Activity: Toxic
[11]
  Activity: Toxic
[12]
  Activity: Toxic
[13]
  Activity: Toxic
[14]
  Activity: Toxic
[15]
  Activity: 1%
[16]
  Activity: Toxic
[17]
  Activity: Toxic
[18]
  Activity: Toxic
[19]
  Activity: Toxic
[20]
  Activity: 35.8%
[21]
  Activity: Toxic
[22]
  Activity: 12.4%
[23]
  Activity: Toxic
[24]
  Activity: Toxic
[25]
  Activity: 11%
[26]
  Activity: Toxic
[27]
  Activity: 1.9%
[28]
  Activity: 13.2%
[29]
  Activity: 30%
[30]
  Activity: 27.6%
[31]
  Activity: Toxic
[32]
  Activity: 1%
[33]
  Activity: Toxic
[34]
  Activity: Toxic
[35]
  Activity: Toxic
[36]
  Activity: 15%
[37]
  Activity: 50.5%
[38]
  Activity: Toxic
[39]
  Activity: Toxic
[40]
  Activity: 40%
